For one assay, the target named is T1, α4β7 integrin (Homo sapiens, UniProt P13612+P26010).
T1 construct: monitoring the capture of α4β7 integrin expressing cells; endogenous in cells; host or cells: RPMI8866
T1 sequence (P13612 34-1032): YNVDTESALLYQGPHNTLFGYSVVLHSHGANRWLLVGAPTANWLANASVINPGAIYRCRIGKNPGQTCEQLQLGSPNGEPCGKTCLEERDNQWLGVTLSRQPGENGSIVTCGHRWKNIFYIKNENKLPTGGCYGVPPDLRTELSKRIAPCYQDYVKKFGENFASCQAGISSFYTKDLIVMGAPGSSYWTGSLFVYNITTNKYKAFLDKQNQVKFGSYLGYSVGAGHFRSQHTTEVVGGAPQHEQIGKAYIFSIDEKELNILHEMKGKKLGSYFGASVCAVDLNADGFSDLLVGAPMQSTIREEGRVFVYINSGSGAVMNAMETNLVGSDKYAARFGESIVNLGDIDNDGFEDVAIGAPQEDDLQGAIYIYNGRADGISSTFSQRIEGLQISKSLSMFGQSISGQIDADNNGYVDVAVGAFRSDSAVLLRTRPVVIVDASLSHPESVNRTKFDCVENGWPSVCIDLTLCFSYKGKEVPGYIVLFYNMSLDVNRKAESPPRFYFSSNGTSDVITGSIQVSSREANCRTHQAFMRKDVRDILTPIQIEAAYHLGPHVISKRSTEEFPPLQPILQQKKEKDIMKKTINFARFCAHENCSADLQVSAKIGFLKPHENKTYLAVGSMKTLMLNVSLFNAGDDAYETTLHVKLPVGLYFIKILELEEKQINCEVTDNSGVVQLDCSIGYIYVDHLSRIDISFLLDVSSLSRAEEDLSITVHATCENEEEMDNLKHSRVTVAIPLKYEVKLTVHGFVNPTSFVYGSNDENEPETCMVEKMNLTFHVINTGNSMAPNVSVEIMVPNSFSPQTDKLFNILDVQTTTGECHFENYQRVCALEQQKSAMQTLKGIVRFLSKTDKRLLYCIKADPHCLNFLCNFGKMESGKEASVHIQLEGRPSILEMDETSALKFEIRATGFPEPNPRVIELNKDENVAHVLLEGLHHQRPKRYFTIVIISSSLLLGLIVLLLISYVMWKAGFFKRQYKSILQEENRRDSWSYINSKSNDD
T1 sequence (P26010 20-798): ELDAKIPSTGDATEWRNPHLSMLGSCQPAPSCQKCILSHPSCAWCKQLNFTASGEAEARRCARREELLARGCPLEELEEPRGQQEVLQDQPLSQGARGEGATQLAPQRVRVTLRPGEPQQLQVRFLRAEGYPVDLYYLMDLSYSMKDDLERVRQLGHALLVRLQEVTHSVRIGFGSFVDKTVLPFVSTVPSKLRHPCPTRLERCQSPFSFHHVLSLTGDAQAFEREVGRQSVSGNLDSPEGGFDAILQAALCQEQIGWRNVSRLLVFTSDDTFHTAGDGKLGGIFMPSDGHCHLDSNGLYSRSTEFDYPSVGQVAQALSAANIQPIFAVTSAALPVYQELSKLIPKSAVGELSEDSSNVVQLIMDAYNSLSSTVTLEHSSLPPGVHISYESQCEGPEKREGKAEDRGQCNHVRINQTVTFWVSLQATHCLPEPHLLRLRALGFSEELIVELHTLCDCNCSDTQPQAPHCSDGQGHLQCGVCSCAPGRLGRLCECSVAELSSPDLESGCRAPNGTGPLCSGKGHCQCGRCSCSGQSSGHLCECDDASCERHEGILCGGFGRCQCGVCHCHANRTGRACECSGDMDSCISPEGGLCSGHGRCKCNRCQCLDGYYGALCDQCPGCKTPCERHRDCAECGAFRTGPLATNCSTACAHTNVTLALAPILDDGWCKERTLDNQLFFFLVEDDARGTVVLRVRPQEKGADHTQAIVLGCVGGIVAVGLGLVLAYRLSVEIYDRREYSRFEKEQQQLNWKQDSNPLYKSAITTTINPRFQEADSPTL
As to the kind of experiment: α4β7 Integrin Cell Capture Assay. Format: cell-based. The note with it: capture of α4β7 integrin expressing RPM18866 cells on MadCAM-1 extracellular domain-coated plate. The essentials: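 RPM18866 cells were preincubated with compound for 1 h at 37 °C in DMEM with 0.5% FBS and 0.5 mM MnCl2. They were then allowed to adhere for 30 min at 37 °C to BSA-blocked plates coated with MAdCAM-1 extracellular domain (1.0 µg/mL). After glutaraldehyde/Hoechst fixation and washing, bound cells were counted by imaging, and EC50 was fitted from counts versus concentration.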

A further assay deals with T2, α4β1 integrin (Homo sapiens, UniProt P05556+P13612).
T2 construct: monitoring the capture of α4β1 expressing cells; endogenous in cells; host or cells: Jurkat
Kind of assay: α4β1 Cell Capture Assay. As to conditions: capture of α4β1 expressing Jurkat cells on VCAM-1 extracellular domain-coated plate. It counts as cell-based. The essentials: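 Jurkat cells in DMEM with 0.5% FBS and 0.5 mM MnCl2 preincubated 1 h at 37° C with compound, then allowed 30 min at 37° C to bind plates coated with recombinant VCAM-1 extracellular domain (0.5 μg/ml). After glutaraldehyde fixation and Hoechst staining, bound cells counted by imaging; EC50 from concentration–response.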

T2 sequence (P05556 21-798, one chain of several): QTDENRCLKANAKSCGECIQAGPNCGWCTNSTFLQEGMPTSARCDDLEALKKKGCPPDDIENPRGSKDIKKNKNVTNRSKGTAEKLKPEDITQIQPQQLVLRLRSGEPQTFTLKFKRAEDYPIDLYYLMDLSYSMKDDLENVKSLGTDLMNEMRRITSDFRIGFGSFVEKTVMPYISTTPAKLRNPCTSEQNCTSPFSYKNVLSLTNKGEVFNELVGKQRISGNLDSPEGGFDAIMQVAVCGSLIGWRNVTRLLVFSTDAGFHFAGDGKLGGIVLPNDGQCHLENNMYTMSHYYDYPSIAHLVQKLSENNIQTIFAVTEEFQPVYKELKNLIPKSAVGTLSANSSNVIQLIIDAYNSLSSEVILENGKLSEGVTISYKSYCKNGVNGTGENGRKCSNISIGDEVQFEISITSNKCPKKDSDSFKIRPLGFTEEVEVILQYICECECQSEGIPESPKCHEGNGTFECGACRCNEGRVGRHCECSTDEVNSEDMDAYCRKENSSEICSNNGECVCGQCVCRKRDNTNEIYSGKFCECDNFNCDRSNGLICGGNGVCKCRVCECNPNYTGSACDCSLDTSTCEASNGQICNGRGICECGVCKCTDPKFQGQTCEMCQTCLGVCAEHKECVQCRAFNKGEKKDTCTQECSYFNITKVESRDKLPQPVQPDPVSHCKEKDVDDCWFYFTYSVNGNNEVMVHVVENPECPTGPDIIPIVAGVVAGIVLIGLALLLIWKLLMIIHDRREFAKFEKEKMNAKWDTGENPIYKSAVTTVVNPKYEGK

For the molecule `Cc1nc(-c2ccc(C[C@H](NC(=O)c3c(F)cc(N4CCOC[C@@H]4C(F)(F)F)cc3F)C(=O)O)cc2)c(=O)n(C)c1C` [Example 38], the EC50 was 4.9 nM at α4β7 integrin (Table 2) and 86.1 nM at α4β1 integrin (Table 2).
For `CC[C@@H](Nc1cc(F)c(C(=O)N[C@@H](Cc2ccc(-n3c(=O)c4cc(N(C)C)ccc4n(C)c3=O)cc2)C(=O)O)c(F)c1)C(F)(F)F` [Example 33], in that order: 2.5 nM and 105 nM.
For `Cc1cc(N2CCOC[C@@H]2C(F)(F)F)cc(F)c1C(=O)N[C@@H](Cc1ccc(-n2c(=O)c3ccc(C#N)cc3n(C)c2=O)nc1)C(=O)O` [Example 76], in that order: 0.16 nM and 4.9 nM.
For `Cc1cc(N2CCOC[C@@H]2CC(F)(F)F)cc(F)c1C(=O)N[C@@H](Cc1ccc(-n2c(=O)c3ccncc3n(C)c2=O)nc1)C(=O)O` [Example 87], in that order: 0.9 nM and 19.7 nM.
Turning to `Cc1cc(N2CCOC[C@H]2CC(F)F)cc(F)c1C(=O)N[C@@H](Cc1ccc(-n2c(=O)c3ccncc3n(C)c2=O)nc1)C(=O)O` [Example 85], the figures for the EC50 on α4β7 integrin (Table 2) and at α4β1 integrin (Table 2) were 3.9 nM and 17.9 nM, respectively.
Take `Cc1cc(N2CCOC[C@@H]2C(F)(F)F)cc(F)c1C(=O)N[C@@H](Cc1ccc(-n2c(=O)c3ccncc3n(C)c2=O)nc1)C(=O)O` [Example 15, (S)-2-(2-fluoro-6-methyl-4-((R)-3-(trifluoromethyl)morpholino)benzamido)-3-(6-(1-methyl-2,4-dioxo-1,4-dihydropyrido[3,4-d]pyrimidin-3(2H)-yl)pyridin-3-yl)propanoic acid]: the EC50 on α4β7 integrin (Table 1) stood at 0.21 nM; on α4β1 integrin (Table 1), 10.6 nM.
For `Cc1cc(N2CCOC[C@@H]2CC(F)F)cc(F)c1C(=O)N[C@@H](Cc1ccc(-n2c(=O)c3c(n(C)c2=O)CCOC3)cc1)C(=O)O` [Example 57, (S)-2-(4-((S)-3-(2,2-difluoroethyl)morpholino)-2-fluoro-6-methylbenzamido)-3-(4-(1-methyl-2,4-dioxo-1,5,7,8-tetrahydro-2H-pyrano[4,3-d]pyrimidin-3(4H)-yl)phenyl)propanoic acid] the same measures were 0.2 nM and 2.8 nM.
For `Cc1cc(C[C@H](NC(=O)c2c(C)cc(N3CCOC[C@@H]3C(F)(F)F)cc2F)C(=O)O)ccc1-c1c(C(F)(F)F)cc(C)n(C)c1=O` [Example 5, (S)-3-(4-(1,6-dimethyl-2-oxo-4-(trifluoromethyl)-1,2-dihydropyridin-3-yl)-3-methylphenyl)-2-(2-fluoro-6-methyl-4-((R)-3-(trifluoromethyl)morpholino)benzamido)propanoic acid], in that order: 0.2 nM and 16.6 nM.
`CC[C@@H](Nc1cc(F)c(C(=O)N[C@@H](Cc2ccc(-c3c(C(F)(F)F)cc(=O)n(C)c3C)cc2)C(=O)O)c(F)c1)C(F)(F)F` [Example 2, (S)-2-(2,6-difluoro-4-(((R)-1,1,1-trifluorobutan-2-yl)amino)benzamido)-3-(4-(1,2-dimethyl-6-oxo-4-(trifluoromethyl)-1,6-dihydropyridin-3-yl)phenyl)propanoic acid]: the EC50 at α4β7 integrin (Table 1) was 13.6 nM; at α4β1 integrin (Table 1) it was 905 nM.
For the molecule `Cn1c(=O)n(-c2ccc(C[C@H](NC(=O)c3c(F)cc(N4CCOC[C@@H]4C(F)(F)F)cc3Cl)C(=O)O)cn2)c(=O)c2ccncc21` [Example 55, (S)-2-(2-chloro-6-fluoro-4-((R)-3-(trifluoromethyl)morpholino)benzamido)-3-(6-(1-methyl-2,4-dioxo-1,4-dihydropyrido[3,4-d]pyrimidin-3(2H)-yl)pyridin-3-yl)propanoic acid], the EC50 on α4β7 integrin (Table 1) is 0.1 nM; at α4β1 integrin (Table 1), 3.4 nM.
For `Cc1cc(N2CCOC[C@@H]2CC(F)F)cc(F)c1C(=O)N[C@@H](Cc1ccc(-n2c(=O)c3ccncc3n(C)c2=O)nc1)C(=O)O` [Example 69, (S)-2-(4-((S)-3-(2,2-difluoroethyl)morpholino)-2-fluoro-6-methylbenzamido)-3-(6-(1-methyl-2,4-dioxo-1,4-dihydropyrido[3,4-d]pyrimidin-3(2H)-yl)pyridin-3-yl)propanoic acid], in that order: 0.2 nM and 20.8 nM.
